Assay results taken from patent US11363816B2, “4-amino-6-(heterocyclic)picolinates and 6-amino-2-(heterocyclic)pyramidine-4-carboxylates and their use as herbicides” (Dow AgroSciences LLC, priority 2017, dated 2022).

Assays:
Assay type in all cases: in vivo
[1] = test system: PAPRH=Papaver rhoeas L. (common poppy); assay: Postemergence field trial, Banares, Spain
Procedure: (§1) Field trials were established in Spain (Banares and Granon) and Germany (Bielefeld) to evaluate the efficacy of Compound 5, Compound 6, and Compound 7. Trials were designed as randomized complete blocks with three to four replicates. Trials were established in winter wheat with natural weed population with plot sizes of 2-2.5 meters (m) by 6-8 m (width×length). The crops were grown using normal cultural practices for fertilization, seeding, and maintenance to ensure good growth of the crop. All herbicide treatments were applied post-emergence with applications made to the crops at the BBCH 21 to 23 growth stage. Herbicides were applied with backpack or bicycle sprayers using air as a propellant. The sprayers utilized flat fan air-induction spray nozzles calibrated to deliver a uniform spray pattern that provided thorough coverage of the foliage using a 200 L/ha spray volume. All treatments were applied with methylated seed oil (MSO) at 1.25% v/v. Phytotoxicity to the weeds was assessed visually at several intervals after application as percent overall control, compared to an untreated control plot. In general, three to four replicates were assessed for each treatment. All treatment results are an average of three or four replicates. Compound 5, Compound 6, and Compound 7 were applied as emulsifiable concentrate (EC) formulations at 100 g ae/L EC, respectively.

[2] = test system: VERHE=Veronica hederifolia (ivyleaved speedwell); assay: Postemergence field trial, Banares, Spain
Procedure: as §1

[3] = test system: FUMOF=Fumaria officinalis (common fumitory); assay: Postemergence field trial, Banares, Spain
Procedure: as §1

[4] = test system: PAPRH=Papaver rhoeas L. (common poppy); assay: Postemergence field trial, Granon, Spain (Table 5)
Procedure: as §1

[5] = test system: VERHE=Veronica hederifolia (ivyleaved speedwell); assay: Postemergence field trial, Granon, Spain (Table 5)
Procedure: as §1

[6] = test system: VERSS=Veronica spp (speedwell); assay: Postemergent herbicidal activity in the greenhouse; settings: 21-28 DAAA
Procedure: (§2) Seeds of the desired test plant species were planted in Sun Gro MetroMix® 306 planting mixture, which typically has a pH of 6.0 to 6.8 and an organic matter content of about 30 percent, in plastic pots with a surface area of 103.2 square centimeters (cm^2). When required to ensure good germination and healthy plants, a fungicide treatment and/or other chemical or physical treatment was applied. The plants were grown for 7-36 days (d) in a greenhouse with an approximate 14 hour (h) photoperiod which was maintained at about 18° C. during the day and 17° C. during the night. Nutrients and water were added on a regular basis and supplemental lighting was provided with overhead metal halide 1000-Watt lamps as necessary. The plants were employed for testing when they reached the second or third true leaf stage.
(§3) An aliquot of formulated Compound 5 (100 grams acid equivalent per liter (g ae/L); emusifiable concentrate (EC)), Compound 6 (100 g ae/L; EC) or Compound 7 (100 g ae/L; EC) was placed in a 25 mL glass vial and diluted in a volume of 1.25% (volume per volume (v/v)) aqueous Actirob B esterified rapeseed oil to obtain a stock solution. The concentrated stock solutions were diluted with an aqueous mixture of 1.25% v/v of aqueous Actirob B esterified rapeseed oil to provide the appropriate application rates. Compound requirements are based upon a 12 mL application volume at a rate of 187 liters per hectare (L/ha). Formulated compounds were applied to the plant material with an overhead Mandel track sprayer equipped with 8002E nozzles calibrated to deliver 187 L/ha over an application area of 0.503 square meters (m^2) at a spray height of 18 inches ([…]) above average plant canopy. Control plants were sprayed in the same manner with the solvent blank.
(§4) The treated plants and control plants were placed in a greenhouse as described above and watered by subirrigation to prevent washoff of the test compounds. After 20-22 d, the condition of the test plants as compared with that of the control plants was determined visually and scored on a scale of 0 to 100 percent where 0 corresponds to no injury and 100 corresponds to complete kill. […]
(§5) The values reported are means.

[7] = test system: CHEAL=Chenopodium album L. (common lambsquarters); assay: Postemergent herbicidal activity in the greenhouse; settings: 21-28 DAAA
Procedure: as §2, §3, §4, §5

[8] = test system: Res-PAPRH=Papaver rhoeas L. (common poppy) resistant to tribenuron and thifensulfuron (ALS) and 2,4-D; assay: Postemergent herbicidal activity in the greenhouse; settings: 21-28 DAAA
Procedure: as §2, §3, §4, §5

[9] = test system: PAPRH=Papaver rhoeas L. (common poppy); assay: Postemergent herbicidal activity in the greenhouse; settings: 21-28 DAAA
Procedure: as §2, §3, §4, §5

[10] = test system: KCHSC=Kochia scoparia (L.) Schrad. (Kochia); assay: Postemergent herbicidal activity in the greenhouse; settings: 21-28 DAAA
Procedure: as §2, §3, §4, §5

[11] = test system: CIRAR=Cirsium arvense (L.) Scop. (Canada thistle); assay: Postemergent herbicidal activity in the greenhouse; settings: 21-28 DAAA
Procedure: as §2, §3, §4, §5

[12] = test system: SINAR=Sinapis arvensis L. (wild mustard); assay: Postemergent herbicidal activity in the greenhouse; settings: 21-28 DAAA
Procedure: as §2, §3, §4, §5

[13] = test system: MATCH=Matricaria recutita L. (wild chamomile); assay: Postemergent herbicidal activity in the greenhouse; settings: 21-28 DAAA
Procedure: as §2, §3, §4, §5

[14] = test system: POLCO=Polygonum convolvulus L. (wild buckwheat); assay: Postemergent herbicidal activity in the greenhouse; settings: 21-28 DAAA
Procedure: as §2, §3, §4, §5

SMILES | Percent (%) Visual Control PAPRH 66DAAA ([1]; 5 g ae/ha) [%] | Percent (%) Visual Control PAPRH 66DAAA ([1]; 10 g ae/ha) [%] | Percent (%) Visual Control PAPRH 66DAAA ([1]; 20 g ae/ha) [%] | Percent (%) Visual Control VERHE 66DAAA ([2]; 5 g ae/ha) [%] | Percent (%) Visual Control VERHE 66DAAA ([2]; 10 g ae/ha) [%] | Percent (%) Visual Control VERHE 66DAAA ([2]; 20 g ae/ha) [%] | Percent (%) Visual Control FUMOF 83DAAA ([3]; 5 g ae/ha) [%] | Percent (%) Visual Control FUMOF 83DAAA ([3]; 10 g ae/ha) [%] | Percent (%) Visual Control FUMOF 83DAAA ([3]; 20 g ae/ha) [%] | Percent (%) Visual Control PAPRH 84DAAA ([4]; 5 g ae/ha) [%] | Percent (%) Visual Control PAPRH 84DAAA ([4]; 10 g ae/ha) [%] | Percent (%) Visual Control PAPRH 84DAAA ([4]; 20 g ae/ha) [%] | Percent (%) Visual Control VERHE 34DAAA ([5]; 5 g ae/ha) [%] | Percent (%) Visual Control VERHE 34DAAA ([5]; 10 g ae/ha) [%] | Percent (%) Visual Control VERHE 34DAAA ([5]; 20 g ae/ha) [%] | Percent (%) Visual Control VERSS ([6]; 10 g ae/ha) [%] | Percent (%) Visual Control VERSS ([6]; 20 g ae/ha) [%] | Percent (%) Visual Control CHEAL ([7]; 10 g ae/ha) [%] | Percent (%) Visual Control CHEAL ([7]; 20 g ae/ha) [%] | Percent (%) Visual Control Res-PAPRH ([8]; 10 g ae/ha) [%] | further results
C#CCOC(=O)c1nc(-c2ccc3cc[nH]c3c2F)c(F)c(N)c1Cl [Compound 5, prop-2-yn-1-yl 4-amino-3-chloro-5-fluoro-6-(7-fluoro-1H-indol-6-yl)picolinate] | 57.7 | 70 | 90 | 60 | 77.7 | 91 | 41.7 | 65 | 93.3 | 66.7 | 78.3 | 90.7 | 60 | 77 | 85 | 77.5 | 80.8 | 97.5 | 100 | 87.5 | Percent (%) Visual Control Res-PAPRH ([8]; 20 g ae/ha): 100%; Percent (%) Visual Control PAPRH ([9]; 10 g ae/ha): 95%; Percent (%) Visual Control PAPRH ([9]; 20 g ae/ha): 100%; Percent (%) Visual Control KCHSC ([10]; 10 g ae/ha): 76.7%; Percent (%) Visual Control KCHSC ([10]; 20 g ae/ha): 82.7%; Percent (%) Visual Control CIRAR ([11]; 10 g ae/ha): 56.7%; Percent (%) Visual Control CIRAR ([11]; 20 g ae/ha): 58.3%; Percent (%) Visual Control SINAR ([12]; 10 g ae/ha): 89%; Percent (%) Visual Control SINAR ([12]; 20 g ae/ha): 96.7%; Percent (%) Visual Control MATCH ([13]; 10 g ae/ha): 54.2%; Percent (%) Visual Control MATCH ([13]; 20 g ae/ha): 68.9%; Percent (%) Visual Control POLCO ([14]; 10 g ae/ha): 100%; Percent (%) Visual Control POLCO ([14]; 20 g ae/ha): 100%
N#CCOC(=O)c1nc(-c2ccc3cc[nH]c3c2F)c(F)c(N)c1Cl [Compound 6, cyanomethyl 4-amino-3-chloro-5-fluoro-6-(7-fluoro-1H-indol-6-yl)picolinate] | 60 | 75 | 91 | 60 | 81.7 | 91 | 41.7 | 69.3 | 96 | 68.7 | 81 | 90 | 55 | 77.7 | 86 | 86.3 | 86.5 | 100 | 100 | 95 | Percent (%) Visual Control Res-PAPRH ([8]; 20 g ae/ha): 100%; Percent (%) Visual Control PAPRH ([9]; 10 g ae/ha): 100%; Percent (%) Visual Control PAPRH ([9]; 20 g ae/ha): 100%; Percent (%) Visual Control KCHSC ([10]; 10 g ae/ha): 73.3%; Percent (%) Visual Control KCHSC ([10]; 20 g ae/ha): 84.3%; Percent (%) Visual Control CIRAR ([11]; 10 g ae/ha): 50%; Percent (%) Visual Control CIRAR ([11]; 20 g ae/ha): 58.3%; Percent (%) Visual Control SINAR ([12]; 10 g ae/ha): 90%; Percent (%) Visual Control SINAR ([12]; 20 g ae/ha): 96%; Percent (%) Visual Control MATCH ([13]; 10 g ae/ha): 57%; Percent (%) Visual Control MATCH ([13]; 20 g ae/ha): 64%; Percent (%) Visual Control POLCO ([14]; 10 g ae/ha): 98.3%; Percent (%) Visual Control POLCO ([14]; 20 g ae/ha): 100%
Nc1c(F)c(-c2ccc3cc[nH]c3c2F)nc(C(=O)OCc2ccccc2)c1Cl [Compound 7, benzyl 4-amino-3-chloro-5-fluoro-6-(7-fluoro-1H-indol-6-yl)picolinate, reference compound] | 53.3 | 62.7 | 75 | 50 | 56 | 70 | 26.7 | 45 | 58.3 | 59.3 | 68.3 | 80.3 | 51.7 | 58.3 | 79.3 | 72.5 | 67.5 | 92.5 | 95 | 92.5 | Percent (%) Visual Control Res-PAPRH ([8]; 20 g ae/ha): 92.5%; Percent (%) Visual Control PAPRH ([9]; 10 g ae/ha): 85%; Percent (%) Visual Control PAPRH ([9]; 20 g ae/ha): 100%; Percent (%) Visual Control KCHSC ([10]; 10 g ae/ha): 65%; Percent (%) Visual Control KCHSC ([10]; 20 g ae/ha): 73.3%; Percent (%) Visual Control CIRAR ([11]; 10 g ae/ha): 30%; Percent (%) Visual Control CIRAR ([11]; 20 g ae/ha): 46.7%; Percent (%) Visual Control SINAR ([12]; 10 g ae/ha): 90%; Percent (%) Visual Control SINAR ([12]; 20 g ae/ha): 94%; Percent (%) Visual Control MATCH ([13]; 10 g ae/ha): 57%; Percent (%) Visual Control MATCH ([13]; 20 g ae/ha): 50.5%; Percent (%) Visual Control POLCO ([14]; 10 g ae/ha): 97.5%; Percent (%) Visual Control POLCO ([14]; 20 g ae/ha): 98.8%
